# “Also recorded” adds a separate entry of the source. Where two headings read alike, the source gives them in different places.
# Tests used:
# SERCA2 isoform = test system: SERCA2 isoform; parameters: method as in Kang et al. [43] and Nguyen et al. [44]; conditions: ref Kang et al. [43] and Nguyen et al. [44]; cited from earlier work
# SERCA1a = target: T1, SERCA1a (Oryctolagus cuniculus, UniProt P04191); assay: SERCA1a ATPase activity, NADH-coupled enzyme assay in sarcoplasmic reticulum vesicles; assay type: biochemical, rabbit; conditions: for Effect on SERCA1a activity: 2 min; for Effect on SERCA1a activity in the presence of PAL: 0.65 mM PAL; for Effect on SERCA1a activity in the presence of MGX: 3 mM MGX; for Concentration from which the SERCA1a activating effect starts: concentration-dependent activation; for IC50: read-out: IC50, reduction in SERCA1a activity; for PAL SERCA1a Activity: in the presence of PAL;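 for all read-outs here: rabbit fast-twitch skeletal muscle SR vesicles with Ca2+ ionophore A23187, ATP hydrolysis rate followed as NADH absorbance loss at 340 nm, 37 °C, started by 10 µM CaCl2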
# T1 construct: Sarcoplasmic reticulum (SR) vesicles were isolated from the fast-twitch skeletal muscle; from tissue; host or cells: rabbit fast-twitch skeletal muscle, sarcoplasmic reticulum vesicles
# T1 sequence (P04191 1-994 isoform P04191-2): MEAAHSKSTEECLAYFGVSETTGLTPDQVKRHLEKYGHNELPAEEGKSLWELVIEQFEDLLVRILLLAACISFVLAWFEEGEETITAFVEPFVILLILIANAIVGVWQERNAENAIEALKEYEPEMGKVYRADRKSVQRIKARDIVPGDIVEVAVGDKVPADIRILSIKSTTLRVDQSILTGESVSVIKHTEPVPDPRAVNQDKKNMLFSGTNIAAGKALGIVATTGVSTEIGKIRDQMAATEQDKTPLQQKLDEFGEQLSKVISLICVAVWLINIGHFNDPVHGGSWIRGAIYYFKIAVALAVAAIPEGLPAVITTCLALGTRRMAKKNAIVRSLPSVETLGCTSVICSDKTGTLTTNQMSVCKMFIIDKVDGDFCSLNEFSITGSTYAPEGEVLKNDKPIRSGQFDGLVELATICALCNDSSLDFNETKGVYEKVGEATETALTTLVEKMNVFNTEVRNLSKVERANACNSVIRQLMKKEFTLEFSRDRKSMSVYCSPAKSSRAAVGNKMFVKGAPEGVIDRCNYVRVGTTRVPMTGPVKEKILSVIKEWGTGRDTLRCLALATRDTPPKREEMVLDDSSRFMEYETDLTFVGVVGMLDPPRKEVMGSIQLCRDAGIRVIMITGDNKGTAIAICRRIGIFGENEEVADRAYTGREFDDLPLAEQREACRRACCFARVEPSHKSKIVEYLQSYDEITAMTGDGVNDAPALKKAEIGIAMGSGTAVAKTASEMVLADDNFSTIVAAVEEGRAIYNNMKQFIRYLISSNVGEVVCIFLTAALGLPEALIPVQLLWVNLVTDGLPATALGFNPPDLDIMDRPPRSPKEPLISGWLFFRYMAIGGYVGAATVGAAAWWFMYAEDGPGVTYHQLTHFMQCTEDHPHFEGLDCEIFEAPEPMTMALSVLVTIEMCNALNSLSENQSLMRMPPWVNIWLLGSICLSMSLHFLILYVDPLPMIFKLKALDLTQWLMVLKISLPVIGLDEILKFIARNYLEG
# INS-1E beta cells [1] = assay: MTT viability assay in INS-1E beta cells; assay type: cell-based; conditions: for IC50: MTT, read-out: IC50, INS-1E cell viability; for PAL INS-1E Viability: in the presence of PAL; for Effect on INS-1E viability in the presence of MGX: 2.5 mM MGX; for Concentrations protecting against MGX-induced beta cell viability decrease: MGX 2.5 mM
# Procedure: The INS-1E insulinoma pancreatic beta cell line (kindly provided by Prof. Claes Wollheim, University of Geneva) was cultured in RPMI 1640 (11 mM glucose, Sigma, St. Louis, MO, USA). The RPMI 1640 was supplemented with 100 U/mL penicillin, 100 μg/mL streptomycin, 2 mM L-glutamine, 1 mM Na pyruvate, 55 μM 2-mercaptoethanol, 10 mM HEPES, 1% nonessential amino acids, and 10% fetal bovine serum (pH 7.0–7.4). Cells were cultivated in a humidified incubator containing 5% CO2 at 37 °C. All experiments were conducted using cells from passages 40 to 70. […] Subsequent measurements were then performed using a cytotoxicity MTT assay and an insulin release assay.
# The MTT (Sigma, St. Louis, MO, USA) reduction assay was used as an indicator of cell damage and was conducted following a standard protocol. INS-1E cells (5 × 10^4 cells per well) were seeded into 96-microwell plates. The cells were preincubated for different periods with or without various concentrations of individual compounds for 24 h (5% CO2 at 37 °C). MTT was introduced to achieve a final concentration of 0.5 mg/mL in an RPMI 1640 medium. Following a 4 h incubation, the MTT medium was removed. The addition of DMSO (100 µL) was added and left to stand for 15 min to solubilize the formazan formed. The absorbance was recorded at 570 nm using a microplate reader (Infinite M200, Tecan, Switzerland).
# INS-1E beta cells [2] = assay: Insulin release from INS-1E beta cells (RIA); assay type: cell-based; conditions: for Insulin release from non-stimulated cells / Insulin release from Glu-stimulated cells: 50 µM, except CUR and THCU 10 µM, 24 h; for Insulin release from non-stimulated cells / Insulin Secretion Non-Stimulated: 3 mM glucose; for Insulin release from Glu-stimulated cells / Insulin Secretion Stimulated: 16.7 mM glucose
# Procedure: The INS-1E insulinoma pancreatic beta cell line (kindly provided by Prof. Claes Wollheim, University of Geneva) was cultured in RPMI 1640 (11 mM glucose, Sigma, St. Louis, MO, USA). The RPMI 1640 was supplemented with 100 U/mL penicillin, 100 μg/mL streptomycin, 2 mM L-glutamine, 1 mM Na pyruvate, 55 μM 2-mercaptoethanol, 10 mM HEPES, 1% nonessential amino acids, and 10% fetal bovine serum (pH 7.0–7.4). Cells were cultivated in a humidified incubator containing 5% CO2 at 37 °C. All experiments were conducted using cells from passages 40 to 70. The cells were pre-treated with various concentrations of individual compounds (5–200 μM) for 24 h with or without MGX (2.5 mM) and PAL (0.4 mM). Subsequent measurements were then performed using a cytotoxicity MTT assay and an insulin release assay.
# Insulin release in response to glucose was measured in INS-1E beta cells ([…]). Briefly, after 24 h preincubation with individual compounds, beta cells were washed with a glucose-free KRBH buffer. Subsequently, cells were incubated at 37 °C for 30 min in a glucose-free KRBH buffer, followed by another 30 min incubation at 37 °C in a KRBH buffer containing either 3 mM glucose (non-stimulating concentration) or 16.7 mM glucose (insulin-stimulating concentration). The supernatants were then collected and analyzed using an RIA kit (Mercodia, Uppsala, Sweden) for insulin release, with rat insulin as the standard.
# [3] = SR vesicles, no stressor, read-out: EC50, SERCA1a activation
compound,measurement,setting,value
Cc1ccc2cccc(NC(=O)c3ccc(OC(C)C)cc3)c2n1 [CDN1163],Concentrations required for efficient SERCA activation,SERCA2 isoform,1 to 10 µM
"Oc1cc(O)c2cc(O)c(-c3ccc(O)c(O)c3)[o+]c2c1 [CYA, Cyanidin chloride]",Effect on SERCA1a activity,SERCA1a; 5–200 μM,increase SERCA1a activity
"O=c1oc2c(O)c(O)cc3c(=O)oc4c(O)c(O)cc1c4c23 [EA, Ellagic acid]",Increase in SERCA1a activity,SERCA1a; 50 μM,approximately 150%
same,Effect on SERCA1a activity in the presence of PAL,SERCA1a; 50 µM,alleviated PAL-induced injury almost to control values
same,Effect on SERCA1a activity in the presence of PAL,SERCA1a; 5–200 μM,most profound protective effect
same,Effect on SERCA1a activity in the presence of MGX,SERCA1a; 5–200 μM,potent concentration-dependent protective effect
same,Effect on SERCA1a activity,SERCA1a; 5–200 μM,increase SERCA1a activity
same,EC50,SERCA1a; [3],33.2 µM
same,Concentration from which the SERCA1a activating effect starts,SERCA1a,≥ 30 µM
same,Effect on INS-1E viability in the presence of PAL,"INS-1E beta cells [1]; 0.4 mM PAL, 5–200 μM",protection
same,Insulin release from non-stimulated cells,INS-1E beta cells [2],significant increase in insulin release
same,Insulin release from Glu-stimulated cells,INS-1E beta cells [2],significant increase in insulin release
"CCCCC[C@H](O)CC(=O)CCc1ccc(O)c(OC)c1 [GIN, [6]-Gingerol]",Effect on SERCA1a activity in the presence of PAL,SERCA1a; 5–200 μM,protective effect
same,Effect on SERCA1a activity in the presence of PAL,SERCA1a; 50 and 100 μM,protected against the decrease in SERCA1 activity
same,Effect on SERCA1a activity in the presence of MGX,SERCA1a; 5–200 μM,potent concentration-dependent protective effect
same,Effect on SERCA1a activity in the presence of MGX,SERCA1a; 100–200 μM,protected against the decrease in SERCA1 activity
same,Effect on SERCA1a activity,SERCA1a; 5–200 μM,increase SERCA1a activity
same,EC50,SERCA1a; [3],36.9 µM
same,Concentration from which the SERCA1a activating effect starts,SERCA1a,≥ 30 µM
same,Insulin release from non-stimulated cells,INS-1E beta cells [2],did not induce an increase
same,Insulin release from Glu-stimulated cells,INS-1E beta cells [2],slight increase
same,Insulin Secretion Non-Stimulated,INS-1E beta cells [2],-
"CC(=O)C=O [MGX, methylglyoxal]",IC50,SERCA1a; SR vesicles,2980 µM
same,IC50,INS-1E beta cells [1],2540 µM
"O=c1c(O)c(-c2cc(O)c(O)c(O)c2)oc2cc(O)cc(O)c12 [MYR, Myricetin]",SERCA1a Activity,SERCA1a; control conditions,-
same,PAL SERCA1a Activity,SERCA1a,-
same,Effect on INS-1E viability in the presence of PAL,"INS-1E beta cells [1]; 0.4 mM PAL, 5–200 μM",highest degree of protection
same,"INS-1E viability restored, % of the control cell value","INS-1E beta cells [1]; 0.4 mM PAL, 10 and 50 µM",approximately 80%
"Oc1cc(O)cc(/C=C/c2ccc(O)cc2O)c1 [ORES, Oxyresveratrol]",Effect on SERCA1a activity in the presence of MGX,SERCA1a; 5–200 μM,further decreased SERCA1a activity
same,PAL SERCA1a Activity,SERCA1a,-
same,PAL INS-1E Viability,INS-1E beta cells [1],-
same,Insulin Secretion Non-Stimulated,INS-1E beta cells [2],-
"CCCCCCCCCCCCCCCC(=O)O [PAL, palmitate]",IC50,SERCA1a; SR vesicles,650 µM
same,IC50,INS-1E beta cells [1]; INS-1E,410 µM
"Oc1ccc(/C=C/c2cc(O)cc(O)c2)cc1 [RES, Resveratrol]",Effect on SERCA1a activity in the presence of MGX,SERCA1a; 5–200 μM,potent concentration-dependent protective effect
same,EC50,"SERCA1a; in the presence of MGX (3 mM), read-out: EC50, protection of SERCA1 activity against MGX",112 µM
same,Effect on INS-1E viability in the presence of PAL,"INS-1E beta cells [1]; 0.4 mM PAL, 5–200 μM",did not prevent the decrease
same,Effect on INS-1E viability in the presence of MGX,"INS-1E beta cells [1]; 5–200 μM, 24 h",no effect; also recorded: did not prevent the decrease
same,MGX INS-1E Viability,INS-1E beta cells [1]; in the presence of MGX,-
same,PAL INS-1E Viability,INS-1E beta cells [1],-
same,Insulin Secretion Non-Stimulated,INS-1E beta cells [2],-
same,Insulin Secretion Stimulated,INS-1E beta cells [2],-
"CCCCC/C=C/C(=O)CCc1ccc(O)c(OC)c1 [SHO, [6]-Shogaol]",Effect on SERCA1a activity in the presence of PAL,SERCA1a; 5–200 μM,additional decrease in SERCA1a activity; also recorded: no preventive effect
same,Effect on SERCA1a activity in the presence of MGX,SERCA1a; 5–200 μM,further decreased SERCA1a activity; also recorded: no preventive effect
same,Effect on SERCA1a activity,SERCA1a; 5–200 μM,does not
same,Insulin Secretion Non-Stimulated,INS-1E beta cells [2],-
same,Insulin Secretion Stimulated,INS-1E beta cells [2],-
"COc1cc(CCC(=O)CC(=O)CCc2ccc(O)c(OC)c2)ccc1O [THCU, Tetrahydrocurcumin]",MGX SERCA1a Activity,SERCA1a; in the presence of MGX,-
same,PAL SERCA1a Activity,SERCA1a,-
same,Effect on INS-1E cell viability,"INS-1E beta cells [1]; 20 µM, 24 h",stimulating effect on cell viability
same,Effect on INS-1E viability in the presence of MGX,INS-1E beta cells [1]; 20 µM,protective effect
same,Concentrations protecting against MGX-induced beta cell viability decrease,INS-1E beta cells [1],< 20 µM
same,Insulin release from non-stimulated cells,INS-1E beta cells [2],significant increase in insulin release
same,Insulin release from Glu-stimulated cells,INS-1E beta cells [2],significant increase in insulin release
Curcumin,Effect on SERCA1a activity in the presence of PAL,SERCA1a; 5–200 μM,additional decrease in SERCA1a activity
same,Effect on SERCA1a activity in the presence of MGX,SERCA1a; 10 µM,prevented MGX-mediated decline
same,Effect on SERCA1a activity in the presence of MGX,SERCA1a; 20–50 µM,further decreased SERCA1a activity
same,Effect on INS-1E viability in the presence of PAL,"INS-1E beta cells [1]; 0.4 mM PAL, 5–200 μM",protection
same,Effect on INS-1E viability in the presence of MGX,INS-1E beta cells [1]; 5 and 10 µM,protective effect
same,Concentrations protecting against MGX-induced beta cell viability decrease,INS-1E beta cells [1],< 20 µM
same,Insulin release from non-stimulated cells,INS-1E beta cells [2],significant increase in insulin release
same,Insulin release from Glu-stimulated cells,INS-1E beta cells [2],significant increase in insulin release
